Assay results as given in patent US20260020570A1, “HERBICIDAL COMBINATIONS AND A METHOD FOR CONTROLLING UNDESIRED VEGETATION” (UPL Mauritius Limited, priority 2022, published 2026).

Test system: Eleusine indica
Assay: Post-emergence herbicidal efficacy of L-glufosinate ammonium, additional herbicides and their combinations; expected efficacy by the Colby method
Format: in vivo
Description: The following products were used for testing the weed control efficacy of present herbicidal combinations.
Evaluation of Post-Emergence Herbicidal Activity:
Methodology: Trials were carried out to evaluate the efficacy of the combinations comprising L-glufosinate ammonium and the additional herbicides on Eleusine genus weeds.
All treatments were in 4 replications per treatment with a spray volume of about 150 L/ha.
Efficacy Evaluation: The expected efficacy of a combination comprising L-glufosinate ammonium and additional herbicides was calculated using the well-established Colby method.
In the Colby method, the expected (or predicted) response of a combination of herbicides is calculated by taking the product of the observed response for each individual component of the combination when applied alone, divided by 100, and subtracting this value from the sum of the observed response for each component when applied alone. An unexpected enhancement in efficacy of the combination is then determined by comparing the observed response of the combination to the expected (or predicted) response as calculated from the observed response of each individual component alone. […] The Colby method requires only a single dose of each herbicide applied alone and the mixture of both doses. The formula used to calculate the expected efficacy (EE) which was compared with the observed efficacy (OE) to determine the efficacy of the present disclosure is explained hereinbelow:
The expected efficacy for a combination of two active ingredients is as follows:
[formula] • wherein, • A=Observed efficacy of active ingredient A at the same concentration as used in the mixture. • B=Observed efficacy of the active ingredient B at the same concentration as used in the mixture.

## C[C@@H](Oc1ccc(Oc2cnc3cc(Cl)ccc3n2)cc1)C(=O)OCC1CCCO1 (some centres unmarked) [quizalofop-p-tefuryl, Quizalofop-p-tefuryl]
21 DAA, Table 17
  Observed efficacy (%) of quizalofop-p-tefuryl (25 g a.i./ha): 10%
28 DAA, Table 17
  Observed efficacy (%) of quizalofop-p-tefuryl (25 g a.i./ha): 5%
35 DAA, Table 17
  Observed efficacy (%) of quizalofop-p-tefuryl (25 g a.i./ha): 5%

## C[N+](C)(C)CCO.O=C([O-])COc1ccc(Cl)cc1Cl [2,4-D choline]
7 DAA, Table 18
  Observed efficacy (%) of 2,4-D choline (228 g a.i./ha): 10%
14 DAA, Table 18
  Observed efficacy (%) of 2,4-D choline (228 g a.i./ha): 10%
21 DAA, Table 18
  Observed efficacy (%) of 2,4-D choline (228 g a.i./ha): 10%
28 DAA, Table 18
  Observed efficacy (%) of 2,4-D choline (228 g a.i./ha): 5%

## Cn1nc(C(F)(F)F)c(CS(=O)(=O)C2=NOC(C)(C)C2)c1OC(F)F [Pyroxasulfone]
7 DAA, Table 11
  Observed efficacy (%) of Pyroxasulfone (75 g a.i./ha): 5%
14 DAA, Table 11
  Observed efficacy (%) of Pyroxasulfone (75 g a.i./ha): 30%

## CCOC(=O)C(C)Oc1ccc(Oc2cnc3cc(Cl)ccc3n2)cc1 (centres unmarked) [quizalofop-ethyl, Quizalofop-ethyl]
21 DAA, Table 16
  Observed efficacy (%) of quizalofop-ethyl (25 g a.i./ha): 95%

## Cc1ccc2c(c1)[C@H](Nc1nc(N)nc(C(C)F)n1)[C@@H](C)C2 (some centres unmarked) [Indaziflam]
7 DAA, Table 9
  Observed efficacy (%) of Indaziflam (50 g a.i./ha): 60%
14 DAA, Table 9
  Observed efficacy (%) of Indaziflam (50 g a.i./ha): 80%
21 DAA, Table 9
  Observed efficacy (%) of Indaziflam (50 g a.i./ha): 85%
28 DAA, Table 9
  Observed efficacy (%) of Indaziflam (50 g a.i./ha): 85%

## CS(=O)(=O)c1ccc(C(=O)C2C(=O)CCCC2=O)c(Cl)c1COCC(F)(F)F [tembotrione, Tembotrione]
3 DAA, Table 15
  Observed efficacy (%) of tembotrione (53 g a.i./ha): 5%
7 DAA, Table 15
  Observed efficacy (%) of tembotrione (53 g a.i./ha): 15%
14 DAA, Table 15
  Observed efficacy (%) of tembotrione (53 g a.i./ha): 40%
21 DAA, Table 15
  Observed efficacy (%) of tembotrione (53 g a.i./ha): 38%
28 DAA, Table 15
  Observed efficacy (%) of tembotrione (53 g a.i./ha): 35%
35 DAA, Table 15
  Observed efficacy (%) of tembotrione (53 g a.i./ha): 30%

## CCc1cccc(C)c1N(COC(C)C)C(=O)CCl [Propisochlor]
7 DAA, Table 13
  Observed efficacy (%) of Propisochlor (540 g a.i./ha): 0%
14 DAA, Table 13
  Observed efficacy (%) of Propisochlor (540 g a.i./ha): 0%

## CP(=O)(O)CC[C@H](N)C(=O)O.N [L-glufosinate ammonium]
3 DAA, Table 15
  Observed efficacy (%) of L-glufosinate ammonium (150 g a.i./ha): 40%
7 DAA, Table 8
  Observed efficacy (%) of L-glufosinate ammonium (150 g a.i./ha): 35%
7 DAA, Table 9
  Observed efficacy (%) of L-glufosinate ammonium (150 g a.i./ha): 35%
7 DAA, Table 10
  Observed efficacy (%) of L-glufosinate ammonium (150 g a.i./ha): 35%
7 DAA, Table 11
  Observed efficacy (%) of L-glufosinate ammonium (150 g a.i./ha): 35%
7 DAA, Table 12
  Observed efficacy (%) of L-glufosinate ammonium (150 g a.i./ha): 40%
7 DAA, Table 13
  Observed efficacy (%) of L-glufosinate ammonium (150 g a.i./ha): 35%
7 DAA, Table 15
  Observed efficacy (%) of L-glufosinate ammonium (150 g a.i./ha): 50%
7 DAA, Table 18
  Observed efficacy (%) of L-glufosinate ammonium (150 g a.i./ha): 70%
14 DAA, Table 8
  Observed efficacy (%) of L-glufosinate ammonium (150 g a.i./ha): 25%
14 DAA, Table 9
  Observed efficacy (%) of L-glufosinate ammonium (150 g a.i./ha): 25%
14 DAA, Table 10
  Observed efficacy (%) of L-glufosinate ammonium (150 g a.i./ha): 25%
14 DAA, Table 11
  Observed efficacy (%) of L-glufosinate ammonium (150 g a.i./ha): 30%
14 DAA, Table 12
  Observed efficacy (%) of L-glufosinate ammonium (150 g a.i./ha): 30%
14 DAA, Table 13
  Observed efficacy (%) of L-glufosinate ammonium (150 g a.i./ha): 30%
14 DAA, Table 15
  Observed efficacy (%) of L-glufosinate ammonium (150 g a.i./ha): 40%
14 DAA, Table 18
  Observed efficacy (%) of L-glufosinate ammonium (150 g a.i./ha): 65%
21 DAA, Table 8
  Observed efficacy (%) of L-glufosinate ammonium (150 g a.i./ha): 20%
21 DAA, Table 9
  Observed efficacy (%) of L-glufosinate ammonium (150 g a.i./ha): 15%
21 DAA, Table 10
  Observed efficacy (%) of L-glufosinate ammonium (150 g a.i./ha): 20%
21 DAA, Table 12
  Observed efficacy (%) of L-glufosinate ammonium (150 g a.i./ha): 20%
21 DAA, Table 15
  Observed efficacy (%) of L-glufosinate ammonium (150 g a.i./ha): 38%
21 DAA, Table 16
  Observed efficacy (%) of L-glufosinate ammonium (150 g a.i./ha): 35%
21 DAA, Table 17
  Observed efficacy (%) of L-glufosinate ammonium (150 g a.i./ha): 25%
21 DAA, Table 18
  Observed efficacy (%) of L-glufosinate ammonium (150 g a.i./ha): 60%
28 DAA, Table 8
  Observed efficacy (%) of L-glufosinate ammonium (150 g a.i./ha): 10%
28 DAA, Table 9
  Observed efficacy (%) of L-glufosinate ammonium (150 g a.i./ha): 5%
28 DAA, Table 12
  Observed efficacy (%) of L-glufosinate ammonium (150 g a.i./ha): 10%
28 DAA, Table 14
  Observed efficacy (%) of L-glufosinate ammonium (150 g a.i./ha): 40%
28 DAA, Table 15
  Observed efficacy (%) of L-glufosinate ammonium (150 g a.i./ha): 30%
28 DAA, Table 17
  Observed efficacy (%) of L-glufosinate ammonium (150 g a.i./ha): 20%
28 DAA, Table 18
  Observed efficacy (%) of L-glufosinate ammonium (150 g a.i./ha): 50%
35 DAA, Table 15
  Observed efficacy (%) of L-glufosinate ammonium (150 g a.i./ha): 20%
35 DAA, Table 17
  Observed efficacy (%) of L-glufosinate ammonium (150 g a.i./ha): 18%

## CS(=O)(=O)c1cc(C(F)(F)F)ccc1C(=O)c1cnoc1C1CC1 [Isoxaflutole]
7 DAA, Table 10
  Observed efficacy (%) of Isoxaflutole (60 g a.i./ha): 40%
14 DAA, Table 10
  Observed efficacy (%) of Isoxaflutole (60 g a.i./ha): 75%
21 DAA, Table 10
  Observed efficacy (%) of Isoxaflutole (60 g a.i./ha): 85%

## CCN(CC)C(=O)C(C)Oc1cccc2ccccc12 (centres unmarked) [napropamide, Napropamide]
7 DAA, Table 12
  Observed efficacy (%) of napropamide (675 g a.i./ha): 5%
14 DAA, Table 12
  Observed efficacy (%) of napropamide (675 g a.i./ha): 5%
21 DAA, Table 12
  Observed efficacy (%) of napropamide (675 g a.i./ha): 5%
28 DAA, Table 12
  Observed efficacy (%) of napropamide (675 g a.i./ha): 5%

## CCc1cccc(C)c1N(C(=O)CCl)[C@@H](C)COC [S-metolachlor]
7 DAA, Table 8
  Observed efficacy (%) of S-metolachlor (960 g a.i./ha): 5%
14 DAA, Table 8
  Observed efficacy (%) of S-metolachlor (960 g a.i./ha): 40%
21 DAA, Table 8
  Observed efficacy (%) of S-metolachlor (960 g a.i./ha): 40%
28 DAA, Table 8
  Observed efficacy (%) of S-metolachlor (960 g a.i./ha): 65%

## COc1c(Cl)ccc(Cl)c1C(=O)O [Dicamba]
28 DAA, Table 14
  Observed efficacy (%) of Dicamba (228 g a.i./ha): 5%
